Measurements published in US12077503B2, “Substituted cyclic amides and their use as herbicides” (FMC CORPORATION, priority 2015, dated 2024).

Experiments:
Type in all cases: in vivo
[1] = tested on: ragweed (common ragweed, Ambrosia elatior); experiment: Test A preemergence; conditions: Preemergence; for Plant response rating, Ragweed: 125 g ai/ha, visual injury after approximately 10 d, 0 to 100 scale where 0 is no effect and 100 is complete control; for Ragweed plant response rating (0 to 100 scale, 0 is no effect, 100 is complete control): 500 g ai/ha, visual injury approx. 10 d
Source text: (§1) Seeds of plant species selected from barnyardgrass (Echinochloa crus-galli), Kochia (Kochia scoparia), ragweed (common ragweed, Ambrosia elatior), ryegrass, Italian (Italian ryegrass, Lolium multiflorum), crabgrass, large (Digitaria sanguinalis), giant foxtail (Setaria faberii), green foxtail (Setaria viridis), morningglory (Ipomoea spp.), pigweed (Amaranthus retroflexus), velvetleaf (Abutilon theophrasti), wheat (Triticum aestivum), and corn (Zea mays) were planted into a blend of loam soil and sand and treated preemergence with a directed soil spray using test chemicals formulated in anon-phytotoxic solvent mixture which included a surfactant.
(§2) At the same time, plants selected from these crop and weed species and also blackgrass (Alopecurus myosuroides), and Galium (catchweed bedstraw, Galium aparine) were planted in pots containing the same blend of loam soil and sand and treated with postemergence applications of test chemicals formulated in the same manner. Plants ranged in height from 2 to 10 cm and were in the one- to two-leaf stage for the postemergence treatment. Treated plants and untreated controls were maintained in a greenhouse for approximately 10 d, after which time all treated plants were compared to untreated controls and visually evaluated for injury. Plant response ratings, summarized in Table A, are based on a 0 to 100 scale where 0 is no effect and 100 is complete control. A dash (-) response means no test result.

[2] = tested on: Kochia (Kochia scoparia); experiment: Test A preemergence; conditions: Preemergence; for Plant response rating, Kochia: 125 g ai/ha, visual injury after approximately 10 d, 0 to 100 scale where 0 is no effect and 100 is complete control; for Kochia plant response rating (0 to 100 scale, 0 is no effect, 100 is complete control): 500 g ai/ha, visual injury approx. 10 d
Source text: as §1, §2

[3] = tested on: ryegrass, Italian (Italian ryegrass, Lolium multiflorum); experiment: Test A preemergence; conditions: Preemergence; for Plant response rating, Ryegrass, Italian: 125 g ai/ha, visual injury after approximately 10 d, 0 to 100 scale where 0 is no effect and 100 is complete control; for Ryegrass, Italian plant response rating (0 to 100 scale, 0 is no effect, 100 is complete control): 500 g ai/ha, visual injury approx. 10 d
Source text: as §1, §2

[4] = tested on: giant foxtail (Setaria faberii); experiment: Test A preemergence; conditions: Preemergence; for Plant response rating, Foxtail, Giant: 125 g ai/ha, visual injury after approximately 10 d, 0 to 100 scale where 0 is no effect and 100 is complete control; for Foxtail, Giant plant response rating (0 to 100 scale, 0 is no effect, 100 is complete control): 500 g ai/ha, visual injury approx. 10 d
Source text: as §1, §2

[5] = tested on: barnyardgrass (Echinochloa crus-galli); experiment: Test A preemergence; conditions: Preemergence; for Plant response rating, Barnyardgrass: 125 g ai/ha, visual injury after approximately 10 d, 0 to 100 scale where 0 is no effect and 100 is complete control; for Barnyardgrass plant response rating (0 to 100 scale, 0 is no effect, 100 is complete control): 500 g ai/ha, visual injury approx. 10 d
Source text: as §1, §2

[6] = tested on: pigweed (Amaranthus retroflexus); experiment: Test A preemergence; conditions: Preemergence; for Plant response rating, Pigweed: 125 g ai/ha, visual injury after approximately 10 d, 0 to 100 scale where 0 is no effect and 100 is complete control; for Pigweed plant response rating (0 to 100 scale, 0 is no effect, 100 is complete control): 500 g ai/ha, visual injury approx. 10 d
Source text: as §1, §2

[7] = tested on: ragweed (common ragweed, Ambrosia elatior); experiment: Test A postemergence
Source text: as §1, §2

[8] = tested on: corn (Zea mays); experiment: Test A postemergence
Source text: as §1, §2

[9] = tested on: Kochia (Kochia scoparia); experiment: Test A postemergence
Source text: as §1, §2

[10] = tested on: ryegrass, Italian (Italian ryegrass, Lolium multiflorum); experiment: Test A postemergence
Source text: as §1, §2

[11] = tested on: Galium (catchweed bedstraw, Galium aparine); experiment: Test A postemergence
Source text: as §1, §2

[12] = tested on: giant foxtail (Setaria faberii); experiment: Test A postemergence
Source text: as §1, §2

[13] = tested on: wheat (Triticum aestivum); experiment: Test A postemergence
Source text: as §1, §2

[14] = tested on: barnyardgrass (Echinochloa crus-galli); experiment: Test A postemergence
Source text: as §1, §2

[15] = tested on: pigweed (Amaranthus retroflexus); experiment: Test A postemergence
Source text: as §1, §2

[16] = tested on: blackgrass (Alopecurus myosuroides); experiment: Test A postemergence
Source text: as §1, §2

[17] = 125 g ai/ha, postemergence, visual rating after approx. 10 d, 0 to 100 scale (0 no effect, 100 complete control)
[18] = Postemergence, 500 g ai/ha, 0 to 100 scale where 0 is no effect and 100 is complete control

| SMILES | Plant response rating, Ragweed [1] | Ragweed plant response rating (0 to 100 scale, 0 is no effect, 100 is complete control) [1] | Plant response rating, Kochia [2] | Kochia plant response rating (0 to 100 scale, 0 is no effect, 100 is complete control) [2] | Plant response rating, Ryegrass, Italian [3] | Ryegrass, Italian plant response rating (0 to 100 scale, 0 is no effect, 100 is complete control) [3] | Plant response rating, Foxtail, Giant [4] | Foxtail, Giant plant response rating (0 to 100 scale, 0 is no effect, 100 is complete control) [4] | Plant response rating, Barnyardgrass [5] | Barnyardgrass plant response rating (0 to 100 scale, 0 is no effect, 100 is complete control) [5] | Plant response rating, Pigweed [6] | Pigweed plant response rating (0 to 100 scale, 0 is no effect, 100 is complete control) [6] | Plant response rating, Ragweed [7, 17] | Plant response rating, Ragweed [7, 18] | Plant response rating, Corn [8, 17] | Plant response rating, Corn [8, 18] | Plant response rating, Kochia [9, 17] | Plant response rating, Kochia [9, 18] | Plant response rating, Ryegrass, Italian [10, 17] | Plant response rating, Ryegrass, Italian [10, 18] | other results |
| --- | --- | --- | --- | --- | --- | --- | --- | --- | --- | --- | --- | --- | --- | --- | --- | --- | --- | --- | --- | --- | --- |
| O=C1NCC(c2cccc(C(F)(F)F)c2)C1C(=O)Nc1ccccc1O (stereo not shown) [Compound 557] | 0 | 0 | 0 | 0 | 0 | 0 | 0 | 0 | 0 | 0 | 0 | 0 | 0 | 0 | 0 | 0 | 0 | 0 | 0 | 0 | Plant response rating, Galium [11, 17]: 0; Plant response rating, Galium [11, 18]: 0; Plant response rating, Foxtail, Giant [12, 17]: 0; Plant response rating, Foxtail, Giant [12, 18]: 0; Plant response rating, Wheat [13, 17]: 0; Plant response rating, Wheat [13, 18]: 0; Plant response rating, Barnyardgrass [14, 17]: 0; Plant response rating, Barnyardgrass [14, 18]: 0; Plant response rating, Pigweed [15, 17]: 0; Plant response rating, Pigweed [15, 18]: 0; Plant response rating, Blackgrass [16, 17]: 0; Plant response rating, Blackgrass [16, 18]: 0 |
| Cc1c(F)cccc1NC(=O)C1C(=O)N(C)CC1c1cccc(C(F)(F)F)c1 (stereo not shown) [Compound 573] | 0 | 50 | 70 | 80 | 80 | 90 | 90 | 100 | 90 | 100 | 40 | 80 | 20 | 60 | 80 | 90 | 50 | 60 | 70 | 90 | Plant response rating, Galium [11, 17]: 60; Plant response rating, Galium [11, 18]: 70; Plant response rating, Foxtail, Giant [12, 17]: 90; Plant response rating, Foxtail, Giant [12, 18]: 90; Plant response rating, Wheat [13, 17]: 70; Plant response rating, Wheat [13, 18]: 70; Plant response rating, Barnyardgrass [14, 17]: 90; Plant response rating, Barnyardgrass [14, 18]: 100; Plant response rating, Pigweed [15, 17]: 30; Plant response rating, Pigweed [15, 18]: 40; Plant response rating, Blackgrass [16, 17]: 70; Plant response rating, Blackgrass [16, 18]: 70 |
